How the values were obtained:
RVH421 cells = experiment: Assay 2 cell proliferation measurement, RVH421; type: cell-based; settings: Homo sapiens, RVH-421, Melanoma, read-out: Anti-proliferation IC50 [nM] RVH421
Experimental: (§1) Cell Proliferation Measurement
(§2) The antiproliferative activity of the compounds of the general formula (I) was examined in vitro in human cancer cells. For this purpose, 500 cells, including HeLa cells, A2058 cells, DU145 cells, HMCB cells, IGR37 cells, NCIH1734 cells, OSRC2 cells, or 750 cells, including CAL51 cells, COL0741 cells, DBTRG05MG cells, DKMG cells, G292CLONEA141B1 cells, GB1 cells, HEL cells, HEL9217 cells, JHUEM1 cells, L3.3 cells, LI7 cells, TE4 cells, or 1000 cells, including 8505C cells, HUT78 cells, NCIH1563 cells, NCIH2122 cells, NCIH2172 cells, RVH421 cells, SKMEL3 cells, or 1500 cells, including C32 cells, HS578T cells, JHOM1 cells, NCIH196 cells, OVKATE cells, were plated in 384-well plates with appropriate growth medium and incubated at 37° C. overnight. After 24 h, the cells on the test plate were treated with the compounds of the general formula (I) as and incubated at 37° C. for 72 h. The compounds were added to the cells by means of an HP D300 digital dispenser in a 10 (or more)-step dilution series. As control, the cells were treated with vehicle (DMSO at 0.3% final concentration). After 72 h, the cells were treated with 20 μl/well of 50% CTG solution in PBS (Promega Cell Titer Glo (catalogue #G755B and G756B)) and incubated at room temperature for 10 min, and luminescence was measured by means of a VICTOR V (Perkin Elmer), in order to determine cell viability at the end of treatment. The percentage effect on cell growth and the IC50 derived therefrom were determined for each test substance using the values from untreated wells (=percent viability). The IC50 values were calculated using a 4-parameter fit.

HS578T cells = experiment: Assay 2 cell proliferation measurement, HS578T; type: cell-based; settings: Homo sapiens, Hs-578T, Breast, ductal carcinoma, read-out: Anti-proliferation IC50 [nM] HS578T
Experimental: as §1, §2

SKMEL3 cells = experiment: Assay 2 cell proliferation measurement, SKMEL3; type: cell-based; settings: Homo sapiens, SK-MEL3, Melanoma, read-out: Anti-proliferation IC50 [nM] SKMEL3
Experimental: as §1, §2

IGR37 cells = experiment: Assay 1 cell proliferation measurement (CTG, 72 h), IGR37; type: cell-based; settings: Homo sapiens, IGR-37, Cell Titer Glo, read-out: IGR37 IC50 [nM] (melanoma)
[1] = Assay 7 in vivo pharmacokinetics in non-rodents (dogs); design: species or system Beagle dogs; settings: i.v.
Experimental: Assay 7 In Vivo Pharmacokinetics in Non-Rodents (e.g. Dogs)
For in vivo pharmacokinetic experiments test compounds were administered to non-rodents (e.g. female Beagle dogs) intravenously (i.v.) at doses of 0.1 to 1 mg/kg and intragastrally (i.g.) at doses of 0.3 to 3 mg/kg formulated as solutions using solubilizers such as e.g. PEG400 in well-tolerated amounts and are usually given as short term infusion (15 min).
Blood samples were taken e.g. at 2 min, 8 min, 15 min, 30 min, 45 min, 1 h, 2 h, 4 h, 6 h, 8 h and 24 h after dosing from the vena saphena.
For pharmacokinetics after intragastral administration test compounds were given intragastrally to fasted non-rodents (e.g. dogs). Blood samples were taken e.g. at 5 min, 15 min, 30 min, 45 min, 1 h, 2 h, 4 h, 6 h, 8 h and 24 h after dosing. […] Blood was collected into Lithium-Heparin tubes (Monovetten@, Sarstedt) and centrifuged for 15 min at 3000 rpm. A small aliquot (e.g. 100 μL) from the supernatant (plasma) was taken and precipitated by addition of an aliquot ice cold acetonitrile (e.g. of 400 μL) and frozen at −20° C. over night. Samples were subsequently thawed and centrifuged at 3000 rpm, 4° C. for 20 minutes. Aliquots of the supernatants were taken for analytical testing using an Agilent HPLC-system with LCMS/MS detection. PK parameters were calculated by non-compartmental analysis using a PK calculation software.
PK parameters derived from concentration-time profiles after i.v.: CLplasma: Total plasma clearance of test compound (in L/kg/h); CLblood: Total blood clearance of test compound: CLplasma*Cp/Cb (abbreviation: CLp;) in L/kg/h) with Cp/Cb being the ratio of concentrations in plasma and blood.
PK parameters calculated from concentration time profiles after […].: Cmax: Maximal plasma concentration (in mg/L); Cmaxnorm: Cmax divided by the administered dose (in kg/L); Tmax: Time point at which Cmax was observed (in h). Parameters calculated from both, i.v. and i.g. concentration-time profiles: AUCnorm: Area under the concentration-time curve from t=0 h to infinity (extrapolated) divided by the administered dose (in kg*h/L); AUC(0-tlast)norm: Area under the concentration-time curve from t=0 h to the last time point for which plasma concentrations could be measured divided by the administered dose (in kg*h/L); t1/2: terminal half-life (in h); F: oral bioavailability: AUCnorm after intragastral administration divided by AUCnorm after intravenous administration (in %).

human full length PDE3B = human full length PDE3B (Homo sapiens (Human), UniProt Q13370); experiment: Assay 5 PDE3B enzyme inhibition (3H-cAMP SPA); type: biochemical; settings: Sf9 cell extract
Chain of human full length PDE3B (Q13370 whole entry): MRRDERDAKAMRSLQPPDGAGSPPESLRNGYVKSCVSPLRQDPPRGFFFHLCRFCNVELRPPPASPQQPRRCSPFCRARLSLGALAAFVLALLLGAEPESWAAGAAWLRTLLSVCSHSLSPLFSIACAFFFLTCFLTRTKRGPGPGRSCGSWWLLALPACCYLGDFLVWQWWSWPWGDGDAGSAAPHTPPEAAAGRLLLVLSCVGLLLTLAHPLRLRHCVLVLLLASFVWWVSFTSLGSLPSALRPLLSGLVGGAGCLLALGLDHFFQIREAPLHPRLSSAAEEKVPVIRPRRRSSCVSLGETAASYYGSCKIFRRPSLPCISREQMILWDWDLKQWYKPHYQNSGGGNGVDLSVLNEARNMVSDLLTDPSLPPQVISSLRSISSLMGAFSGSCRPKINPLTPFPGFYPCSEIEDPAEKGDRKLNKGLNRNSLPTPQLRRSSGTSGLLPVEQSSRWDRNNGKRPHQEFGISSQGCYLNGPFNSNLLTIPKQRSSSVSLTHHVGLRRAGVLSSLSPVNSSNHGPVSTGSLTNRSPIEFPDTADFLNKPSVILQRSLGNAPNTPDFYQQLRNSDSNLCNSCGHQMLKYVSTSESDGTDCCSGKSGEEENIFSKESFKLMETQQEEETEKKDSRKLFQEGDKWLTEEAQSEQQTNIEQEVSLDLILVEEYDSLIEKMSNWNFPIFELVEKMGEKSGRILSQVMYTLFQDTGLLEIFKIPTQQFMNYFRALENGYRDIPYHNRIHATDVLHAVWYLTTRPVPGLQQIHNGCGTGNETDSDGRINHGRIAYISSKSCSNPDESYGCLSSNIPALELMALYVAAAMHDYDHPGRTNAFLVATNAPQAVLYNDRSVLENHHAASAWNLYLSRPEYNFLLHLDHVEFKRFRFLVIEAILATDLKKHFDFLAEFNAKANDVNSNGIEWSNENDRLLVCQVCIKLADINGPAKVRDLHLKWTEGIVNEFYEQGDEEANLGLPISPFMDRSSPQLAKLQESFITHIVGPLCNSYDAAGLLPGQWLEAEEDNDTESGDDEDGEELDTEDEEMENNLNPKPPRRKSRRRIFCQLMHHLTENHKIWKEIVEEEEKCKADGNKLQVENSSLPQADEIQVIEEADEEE
In short: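 Inhibition was measured by scintillation proximity using [8-3H]adenosine 3′,5′-cyclic phosphate as substrate and full-length human PDE3B from an Sf9 overexpression extract, run one hour at room temperature at pH 7.5.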

PA-1 cells = experiment: Assay 1 cell proliferation measurement, PA-1; type: cell-based; settings: Homo sapiens, Ovarian teratocarcinoma, read-out: Anti-proliferation IC50 [nM] PA-1
HEL 92.1.7 cells = experiment: Assay 1 cell proliferation measurement, HEL 92.1.7; type: cell-based; settings: Homo sapiens, Erythroleukemia, read-out: Anti-proliferation IC50 [nM] HEL 92.1.7

| SMILES | IC50 (RVH421 cells) [nM] | IC50 (HS578T cells) [nM] | IC50 (SKMEL3 cells) [nM] | IC50 (IGR37 cells) [nM] | CLblood dog [1] [mL/min/kg] | IC50 (human full length PDE3B) [nM] | IC50 (PA-1 cells) [nM] | IC50 (HEL 92.1.7 cells) [nM] |
| --- | --- | --- | --- | --- | --- | --- | --- | --- |
| C[C@@H]1OC(=O)NN=C1c1ccc(-n2ccc(C(F)(F)F)n2)c(C(F)(F)F)c1 [Example 265, (6S)-6-Methyl-5-{3-(trifluoromethyl)-4-[3-(trifluoromethyl)-1H-pyrazol-1-yl]phenyl}-3,6-dihydro-2H-1,3,4-oxadiazin-2-one] | 262 | 116 | 10 | 7 |  |  |  |  |
| O=C1NN=C(c2ccc(-c3cnn(C(F)F)c3)c(C(F)(F)F)c2)CO1 [Example 146, 5-{4-[1-(Difluoromethyl)-1H-pyrazol-4-yl]-3-(trifluoromethyl)phenyl}-3,6-dihydro-2H-1,3,4-oxadiazin-2-one] | 47 | 20 | 3 | 2 | 47.3 | 80 | 12 | 13 |
| O=C1NN=C(c2ccc(-c3ccc(Cl)cc3)c(C(F)(F)F)c2)CO1 [Example 31, 5-[4′-Chloro-2-(trifluoromethyl)biphenyl-4-yl]-3,6-dihydro-2H-1,3,4-oxadiazin-2-one] |  |  |  | 14 | 8.17 | 603 | 39 | 47 |
| O=C1NN=C(c2ccc(-c3ccc(F)cc3)c(C(F)(F)F)c2)CO1 [Example 3, 5-[4′-Fluoro-2-(trifluoromethyl)biphenyl-4-yl]-3,6-dihydro-2H-1,3,4-oxadiazin-2-one] |  |  |  |  | 39.8 | 197 | 22 | 25 |
| C[C@@H]1OC(=O)NN=C1c1ccc(-c2ccc(F)cc2)c(C(F)(F)F)c1 [Example 135, (6S)-5-[4′-Fluoro-2-(trifluoromethyl)biphenyl-4-yl]-6-methyl-3,6-dihydro-2H-1,3,4-oxadiazin-2-one] | 140 | 33 | 5 | 3 | 8.17 | 50 |  |  |
